Measurements published in publication PMC6271088, “Quantification of the Resveratrol Analogs trans-2,3-Dimethoxy-stilbene and trans-3,4-Dimethoxystilbene in Rat Plasma: Application to Pre-Clinical Pharmacokinetic Studies” (Molecules, 2014).
“Also recorded” adds a separate entry of the source. Where two headings read alike, the source gives them in different places.

Legend:
[1] = cited from earlier work
[2] = Rat liver microsome metabolic stability; format: in vitro ADME, Sprague-Dawley rat; conditions: for half-life at 0.6 µg/mL: Sprague-Dawley, pH 7.4, in the presence of NADPH, 37 °C; for half-life at 0.6 µg/mL / compound remained after microsomal incubation: rat liver microsomes; for stability in acetonitrile-inactivated microsomes: acetonitrile-inactivated microsomes (chemical stability); for compound remained after microsomal incubation: in the absence of NADPH, 45 min incubation
Experimental: RLM metabolic stabilities of 2,3-DMS and 3,4-DMS were examined by mixing Sprague-Dawley RLM with potassium phosphate buffer (pH = 7.4), NADPH regenerating solution B and either compounds to achieve a final compound concentration of 0.6 µg/mL. Negative control was set up, using Milli-Q water in place of NADPH. Chemical stability of compound in inactivated RLM was checked using similar system with acetonitrile/Milli-Q mixture instead of phosphate buffe.
Pre-incubation was done in 37 °C water bath for 5 min before NADPH A was added to initiate reaction. Aliquots were drawn at 0, 5, 15, 25, 35 and 45 min and quenched using ice cold trans-stilbene–acetonitrile working solution. Chemical stability was monitored at 0, 25 and 45 min. The samples were further processed for HPLC analysis as described above.
To assess extent of metabolism, percentage of compound remaining at each time point with respect to 0 min was calculated. Mean and standard deviation was obtained from column statistics using GraphPad Prism 5, version 5.03 for Windows, via raw means from the six replicates of each setup. Elimination half-lives were obtained from non-linear regression via one-phase exponential decay, where x was time in minutes, y was percentage remaining with respect to 0 min and a weighting factor of 1/y^2 was used.

[3] = Oral pharmacokinetics in Sprague-Dawley rats; format: in vivo; conditions: for post-dosing plasma samples above LLOQ (10 ng/mL): six rats
Experimental: (§1) This animal model has been used to investigate the pharmacokinetics of various stilbenes. The animal handling protocol was reviewed and approved by the Institutional Animal Care and Use Committee of the National University of Singapore (NUS). All animal experiments were carried out in Comparative Medicine Centre of NUS. Sprague-Dawley rats (male, 346 ± 18 g, bred by Centre for Animal Resources, NUS) were maintained on a 12 h light/dark cycle with free access to food and water. Polyethylene tube (inner diameter (I.D.) 0.58 mm, outside diameter (O.D.) 0.965 mm, Becton Dickinson, Sparks, MD, USA) was implanted into the right jugular vein under anaesthesia on the day before pharmacokinetic study. This catheter was used for intravenous drug administration as well as for blood sampling.
(§2) Twenty-two rats were divided into four groups. Group 1 and Group 2 (n = 5) received single intravenous bolus dose (4 mg/kg) of 2,3-DMS and 3,4-DMS respectively. Serial blood samples were collected before dosing (0 min) and at 5, 15, 30, 60, 90, 120, 180, 300, 480 and 660 min post-dosing. Group 3 and Group 4 (n = 6) received single oral dose (10 mg/kg) of 2,3-DMS and 3,4-DMS respectively through oral gavage and serial blood samples were collected before dosing (0 min) and at 15, 30, 45, 60, 90, 120, 180, 300, 480 and 660 min post-dosing. 0.3 mL heparin-saline (10 I.U./mL) was used to flush the cannular after each intravenous injection or blood sampling to maintain its patency. Blood samples were centrifuged at 3500 g at 4 °C for 5 min and plasma was collected and stored at −80 °C.
(§3) Pharmacokinetic parameters were derived using WinNonlin standard version 1.0 (Scientific Consulting Inc., Apex, NC, USA). […] Plasma exposure (area under the plasma concentration-time curve from 0 min to last measurable point (AUC0→last)) in rats receiving intravenous administration was calculated by the linear/log trapezoidal rule while the linear trapezoidal rule was used to calculate the plasma exposure in rats receiving oral administration. Clearance (Cl0→last), mean transit time (MTT0→last) and terminal half-life (t1/2 λZ) were calculated using non-compartmental analysis. Maximal plasma concentration (Cmax) and the time required to reach (tmax) were from direct experimental observations. Absolute oral bioavailability (F) of 2,3-DMS was calculated through reported method.

[4] = Post-preparative stability (processed samples in auto-sampler vial); format: physicochemical; conditions: rat, Post-preparative samples stored at 24 °C for 24 h, read-out: Stability (% Remained); for remaining at 24 h, 25 ng/mL: spiked 25 ng/mL; for remaining at 24 h, 400 ng/mL: spiked 400 ng/mL; for remaining at 24 h, 1400 ng/mL: spiked 1400 ng/mL
Experimental: (§4) Stock solutions of analytes were prepared in DMSO to a final concentration of 1 mg/mL, stored at room temperature (24 °C) and protected from light. The internal standard (IS) (trans-stilbene) was prepared by dissolving in acetonitrile and diluted to 100 ng/mL (working solution). Equal volumes of rat liver microsome (RLM) and trans-stilbene–acetonitrile working solution were mixed to quench the reaction. After vigorous vortexing for 20 s, the samples were centrifuged at 6,000 g for 10 min at 4 °C. Rat plasma samples were processed by adding trans-stilbene–acetonitrile working solution to rat plasma in 3:1 ratio. After vigorous vortexing for 20 s, the samples were centrifuged at 10,000 g for 4 min at 4 °C. Finally, the supernatant was transferred into a glass insert that was pre-installed in a 1.5 mL auto-sampler vial. During each assay, 75 µL supernatant was injected into the HPLC-UV system.
(§5) Stabilities of 2,3-DMS in stock solution were evaluated after storage at room temperature for eight days. Stability of 2,3-DMS in rat plasma under different conditions was profiled with QC samples. Freeze-thaw stability was assessed after three freeze (−80 °C)–thaw (24 °C) cycles. Short-term room temperature stability (24 °C) of 2,3-DMS in rat plasma was examined after storing such samples at room temperature for 6 h. Long-term storage stability of 2,3-DMS in rat plasma was studied after being stored at −80 °C for 10 days. Post-preparative stability study was conducted by re-analyzing samples (kept in auto-sampler vial at room temperature) 24 h later. The stability of 3,4-DMS was assessed in the same way. Samples were considered stable if analytical responses were within 100% ± 15% of corresponding freshly prepared samples.

[5] = Stability in rat plasma (QC samples: short-term, freeze-thaw, long-term); format: in vitro ADME; conditions: read-out: Stability (% Remained); for remaining at 25 ng/mL / remaining at 400 ng/mL / remaining at 1400 ng/mL: Plasma samples after three freeze-thaw cycles; for remaining at 25 ng/mL / remaining at 6 h, 25 ng/mL / remaining at 240 h, 25 ng/mL: spiked 25 ng/mL; for remaining at 400 ng/mL / remaining at 6 h, 400 ng/mL / remaining at 240 h, 400 ng/mL: spiked 400 ng/mL; for remaining at 1400 ng/mL / remaining at 6 h, 1400 ng/mL / remaining at 240 h, 1400 ng/mL: spiked 1400 ng/mL; for remaining at 6 h, 25 ng/mL / remaining at 6 h, 400 ng/mL / remaining at 6 h, 1400 ng/mL: Plasma samples stored at 4 °C for 6 h; for remaining at 240 h, 25 ng/mL / remaining at 240 h, 400 ng/mL / remaining at 240 h, 1400 ng/mL: Plasma samples stored at −80 °C for 10 days
Experimental: as §5, with “Short-term room temperature stability (24 °C) of 2,3-DMS in rat plasma was examined after storing such samples at room temperature for 6 h.” left out

[6] = Intravenous pharmacokinetics in Sprague-Dawley rats; format: in vivo; conditions: intravenous 4 mg/kg; for plasma level relative to LLOQ (10 ng/mL) over sampling period: sampling up to 660 min; for B / α / β / A: two-compartment model; for A: HP-β-CD formulation; for AUC(0-t) / clearance / Vd / half-life: male, Sprague-Dawley, rat, plasma; for clearance: read-out: Cl (clearance); for Vd: read-out: Vc (volume of distribution of the central compartment); for half-life: read-out: t1/2 λZ (terminal elimination half-life)
Experimental: as §1, §2, §3

[7] = Stock solution stability (DMSO stock, room temperature); format: physicochemical; conditions: Stock solution stored at 24 °C for 8 days, read-out: Stability (% Remained)
Experimental: as §4
Stabilities of 2,3-DMS in stock solution were evaluated after storage at room temperature for eight days. Stability of 2,3-DMS in rat plasma under different conditions was profiled with QC samples. Freeze-thaw stability was assessed after three freeze (−80 °C)–thaw (24 °C) cycles. Short-term room temperature stability (24 °C) of 2,3-DMS in rat plasma was examined after storing such samples at room temperature for 6 h. […] The stability of 3,4-DMS was assessed in the same way. […]

| half-life at 0.6 µg/mL [2] | stability in acetonitrile-inactivated microsomes [2] | compound remained after microsomal incubation [2] | remaining at 24 h, 25 ng/mL [4] | remaining at 24 h, 400 ng/mL [4] | remaining at 24 h, 1400 ng/mL [4] | remaining at 25 ng/mL [5] | remaining at 400 ng/mL [5] | remaining at 1400 ng/mL [5] | remaining at 6 h, 25 ng/mL [5] | remaining at 6 h, 400 ng/mL [5] | remaining at 6 h, 1400 ng/mL [5] | remaining at 240 h, 25 ng/mL [5] | remaining at 240 h, 400 ng/mL [5] | remaining at 240 h, 1400 ng/mL [5] | B [6] | α [6] | SMILES | oral bioavailability (in words) [1] | post-dosing plasma samples above LLOQ (10 ng/mL) ([3]; oral 10 mg/kg) | plasma level relative to LLOQ (10 ng/mL) over sampling period [6] | further results |
| --- | --- | --- | --- | --- | --- | --- | --- | --- | --- | --- | --- | --- | --- | --- | --- | --- | --- | --- | --- | --- | --- |
|  |  |  |  |  |  |  |  |  |  |  |  |  |  |  |  |  | COc1cc(C=Cc2cc(OC)c(OC)c(OC)c2)cc(OC)c1 [3,4,5,3',5'-pentamethoxystilbene] | excellent or quite good oral bioavailability |  |  |  |
|  |  |  |  |  |  |  |  |  |  |  |  |  |  |  |  |  | COc1ccc(/C=C/c2cc(OC)cc(OC)c2)cc1 [3,5,4'-trimethoxysilbene, trans-3,5,4'-trimethoxystilbene] | excellent or quite good oral bioavailability |  |  |  |
|  |  |  |  |  |  |  |  |  |  |  |  |  |  |  |  |  | COc1cc(/C=C/c2ccc(OC)c(OC)c2)cc(OC)c1 [trans-3,5,3',4'-tetramethoxystilbene] | excellent or quite good oral bioavailability |  |  |  |
|  |  |  |  |  |  |  |  |  |  |  |  |  |  |  |  |  | Oc1cc(O)cc(/C=C/c2ccccc2)c1 [pinosylvine, trans-3,5-dihydroxystilbene] | much poorer than resveratrol |  |  |  |
| 0.237 h | good stability | 46.6% ± 4.6% | 97.2 ± 2.5% | 100.1 ± 0.5% | 100.6 ± 0.7% | 102 ± 4.5% | 93.2 ± 1.2% | 91.8 ± 2.6% | 94.9 ± 4.4% | 95.5 ± 1.1% | 95.4 ± 0.6% | 107 ± 6.6% | 96.6 ± 4.7% | 93.5 ± 4.1% | 135.6 ± 40.6 ng/mL | 5.02 ± 1.76 10^−2 × min^−1 | COc1cccc(/C=C/c2ccccc2)c1OC [2,3-DMS, trans-2,3-Dimethoxystilbene] |  | 32 out of 60 | remained quantifiable throughout our sampling period | Cmax ([3]; male, Sprague-Dawley, rat, plasma, oral 10 mg/kg): 0.0375 ± 0.0237 µg/mL; bioavailability ([3]; male, Sprague-Dawley, rat, plasma, oral 10 mg/kg vs intravenous 4 mg/kg, read-out: F (oral bioavailability)): 2.22 ± 2.13%; AUC(0-t) ([3]; male, Sprague-Dawley, rat, plasma, oral 10 mg/kg, HP-β-CD formulation): 0.0643 µg·h/mL; MTT0→last (mean transit time) ([3]; oral 10 mg/kg): 83.2 ± 67.4 min; MTT0→last (mean transit time) [6]: 131.0 ± 4.5 min; β [6]: 3.08 ± 0.73 10^−3 × min^−1; A [6]: 1384.1 ± 251.4 ng/mL; AUC(0-t) [6]: 1.16 µg·h/mL; clearance [6]: 3.12 ± 0.42 L/h/kg; Vd [6]: 2.71 ± 0.51 L/kg; half-life [6]: 4.81 ± 1.55 h; remaining at 192 h, 1 mg/mL [7]: 98.1 ± 2.1% |
| 0.277 h | good stability | 78.1% ± 5.3% | 98.1 ± 5.7% | 98.1 ± 1.8% | 100.1 ± 0.6% | 106 ± 5.2% | 93.4 ± 0.7% | 92.4 ± 2.4% | 104 ± 6.6% | 94.7 ± 0.7% | 96.2 ± 0.4% | 91 ± 13.8% | 93.6 ± 4.6% | 93 ± 3.7% | 55.9 ± 26.1 ng/mL | 5.25 ± 1.45 10^−2 × min^−1 | COc1ccc(/C=C/c2ccccc2)cc1OC [3,4-DMS, trans-3,4-dimethoxystilbene] |  | three post-dosing samples collected from one out of six rats | became unmeasurable at 11 h | oral bioavailability (in words) ([3]; oral 10 mg/kg, 10 mg/kg): even poorer than 2,3-DMS; also recorded: almost nil; clearance relative to rat hepatic blood flow [6]: three-fold; β [6]: 3.85 ± 2.45 10^−3 × min^−1; A [6]: 702.7 ± 148.5 ng/mL; MTT0→last (mean transit time) ([6]; 4 mg/kg): 61.4 ± 27.1 min; AUC(0-t) [6]: 0.427 µg·h/mL; clearance [6]: 8.6 ± 2.43 L/h/kg; Vd [6]: 5.58 ± 1.73 L/kg; half-life [6]: 3.22 ± 2.05 h; remaining at 192 h, 1 mg/mL [7]: 96.7 ± 2.7% |
